Test results reported in ChEMBL document CHEMBL4004803, “Syntheses and antibacterial activity of soluble 9-bromo substituted indolizinoquinoline-5,12-dione derivatives” (Eur J Med Chem, 2017).
Converted amounts (≈) assume the structure as drawn.

How the values were obtained:
Assay type in all cases: functional
[1] = tested on: Staphylococcus haemolyticus; assay: Antibacterial activity against Staphylococcus haemolyticus CICC 10373 after 20 to 24 hrs by two-fold microdilution method
Enterococcus faecalis = assay: Antibacterial activity against Enterococcus faecalis ATCC 29212 after 20 to 24 hrs by two-fold microdilution method
Streptococcus pneumoniae = assay: Antibacterial activity against Streptococcus pneumoniae ATCC 6305 after 20 to 24 hrs by two-fold microdilution method
Streptococcus pyogenes = assay: Antibacterial activity against Streptococcus pyogenes ATCC 19615 after 20 to 24 hrs by two-fold microdilution method
Staphylococcus aureus [2] = assay: Antibacterial activity against methicillin-resistant Staphylococcus aureus ATCC 43300 after 20 to 24 hrs by two-fold microdilution method
Staphylococcus aureus [3] = assay: Antibacterial activity against […] Staphylococcus aureus ATCC 25923 after 20 to 24 hrs by two-fold microdilution method
[4] = tested on: Staphylococcus epidermidis; assay: Antibacterial activity against Staphylococcus epidermidis ATCC 12228 after 20 to 24 hrs by two-fold microdilution method
Escherichia coli = assay: Antibacterial activity against Escherichia coli ATCC 25922 after 20 to 24 hrs by two-fold microdilution method
Staphylococcus aureus [5] = assay: Antibacterial activity against methicillin-resistant Staphylococcus aureus 1216052 clinical isolate after 20 to 24 hrs by two-fold microdilution method
Staphylococcus aureus [6] = assay: Antibacterial activity against methicillin-resistant Staphylococcus aureus clinical isolate after 20 to 24 hrs by two-fold microdilution method
Staphylococcus aureus [7] = assay: Antibacterial activity against methicillin-resistant Staphylococcus aureus 1026021 clinical isolate after 20 to 24 hrs by two-fold microdilution method
Staphylococcus aureus [8] = assay: Antibacterial activity against methicillin-resistant Staphylococcus aureus 111423 clinical isolate after 20 to 24 hrs by two-fold microdilution method
Staphylococcus aureus [9] = assay: Antibacterial activity against methicillin-resistant Staphylococcus aureus 1106003 clinical isolate after 20 to 24 hrs by two-fold microdilution method
Staphylococcus aureus [10] = assay: Antibacterial activity against methicillin-resistant Staphylococcus aureus 1103006 clinical isolate after 20 to 24 hrs by two-fold microdilution method

SMILES | MIC [1] [µg/mL] | MIC (Enterococcus faecalis) [µg/mL] | MIC (Streptococcus pneumoniae) [µg/mL] | MIC (Streptococcus pyogenes) [µg/mL] | MIC (Staphylococcus aureus [2]) [µg/mL] | MIC (Staphylococcus aureus [3]) [µg/mL] | MIC [4] [µg/mL] | MIC (Escherichia coli) [µg/mL] | MIC (Staphylococcus aureus [5]) [µg/mL] | MIC50 (Staphylococcus aureus [6]) [µg/mL] | MIC90 (Staphylococcus aureus [6]) [µg/mL] | MIC (Staphylococcus aureus [7]) [µg/mL] | MIC (Staphylococcus aureus [8]) [µg/mL] | MIC (Staphylococcus aureus [9]) [µg/mL] | MIC (Staphylococcus aureus [10]) [µg/mL]
CC1(C)S[C@@H]2[C@H](NC(=O)Cc3ccccc3)C(=O)N2[C@H]1C(=O)O [PENICILLIN G] | ≤ 0.0078 | 1 (≈ 2.99 µM) | ≤ 0.0078 | ≤ 0.0078 | > 16 | 0.063 (≈ 0.188 µM) | 8 (≈ 23.9 µM) | > 16 | – | – | – | – | – | – | –
O=C1c2cccnc2C(=O)c2c1c(C(=O)OCCCCN1CCCCC1)c1ccc(Br)cn21 | 2 (≈ 3.92 µM) | 1 (≈ 1.96 µM) | 4 (≈ 7.84 µM) | 16 (≈ 31.3 µM) | 1 (≈ 1.96 µM) | 1 (≈ 1.96 µM) | 0.125 (≈ 0.245 µM) | 4 (≈ 7.84 µM) | – | – | – | – | – | – | –
CCOC(=O)c1c2c(n3cccc(Br)c13)C(=O)c1nccnc1C2=O | – | – | – | – | – | 1 (≈ 2.5 µM) | – | > 16 | – | – | – | – | – | – | –
O=C1c2cccnc2C(=O)c2c1c(C(=O)OCCCN1CCCCC1)c1ccc(Br)cn21 | 2 (≈ 4.03 µM) | 4 (≈ 8.06 µM) | 16 (≈ 32.2 µM) | 16 (≈ 32.2 µM) | 4 (≈ 8.06 µM) | 4 (≈ 8.06 µM) | 0.5 (≈ 1.01 µM) | 8 (≈ 16.1 µM) | – | – | – | – | – | – | –
CCOC(=O)c1c2c(n3cc(Br)ccc13)C(=O)c1ncccc1C2=O | 0.125 (≈ 0.313 µM) | 0.016 (≈ 0.0401 µM) | 4 (≈ 10 µM) | 4 (≈ 10 µM) | 0.063 (≈ 0.158 µM) | 0.063 (≈ 0.158 µM) | 0.063 (≈ 0.158 µM) | > 16 | – | – | – | – | – | – | –
O=C1c2cccnc2C(=O)c2c1c(C(=O)OCCCN1CCCC1)c1ccc(Br)cn21 | 2 (≈ 4.15 µM) | 1 (≈ 2.07 µM) | 4 (≈ 8.29 µM) | 8 (≈ 16.6 µM) | 1 (≈ 2.07 µM) | 2 (≈ 4.15 µM) | 0.25 (≈ 0.518 µM) | 0.5 (≈ 1.04 µM) | – | – | – | – | – | – | –
O=C1c2cccnc2C(=O)c2c1c(C(=O)OCCCCCN1CCCCC1)c1ccc(Br)cn21 | 1 (≈ 1.91 µM) | 0.5 (≈ 0.953 µM) | 4 (≈ 7.63 µM) | 8 (≈ 15.3 µM) | 2 (≈ 3.81 µM) | 1 (≈ 1.91 µM) | 0.125 (≈ 0.238 µM) | 4 (≈ 7.63 µM) | – | – | – | – | – | – | –
O=C1c2cccnc2C(=O)c2c1c(C(=O)OCCCN1CCOCC1)c1ccc(Br)cn21 | 4 (≈ 8.03 µM) | 2 (≈ 4.01 µM) | 16 (≈ 32.1 µM) | 16 (≈ 32.1 µM) | 0.5 (≈ 1 µM) | 0.5 (≈ 1 µM) | 0.25 (≈ 0.502 µM) | 16 (≈ 32.1 µM) | – | – | – | – | – | – | –
CN(C)CCCCOC(=O)c1c2c(n3cc(Br)ccc13)C(=O)c1ncccc1C2=O | 4 (≈ 8.5 µM) | 2 (≈ 4.25 µM) | 8 (≈ 17 µM) | 16 (≈ 34 µM) | 2 (≈ 4.25 µM) | 4 (≈ 8.5 µM) | 0.25 (≈ 0.532 µM) | 1 (≈ 2.13 µM) | – | – | – | – | – | – | –
CN1CCN(CCCCOC(=O)c2c3c(n4cc(Br)ccc24)C(=O)c2ncccc2C3=O)CC1 | 1 (≈ 1.9 µM) | 0.5 (≈ 0.952 µM) | 2 (≈ 3.81 µM) | 8 (≈ 15.2 µM) | 0.5 (≈ 0.952 µM) | 0.25 (≈ 0.476 µM) | 0.031 (≈ 0.059 µM) | 8 (≈ 15.2 µM) | – | – | – | – | – | – | –
CN(C)CCCCCCOC(=O)c1c2c(n3cc(Br)ccc13)C(=O)c1ncccc1C2=O | 0.5 (≈ 1 µM) | 0.5 (≈ 1 µM) | 2 (≈ 4.01 µM) | 8 (≈ 16.1 µM) | 0.25 (≈ 0.502 µM) | 0.25 (≈ 0.502 µM) | ≤ 0.0078 | 2 (≈ 4.01 µM) | – | – | – | – | – | – | –
CN1CCN(CCCOC(=O)c2c3c(n4cc(Br)ccc24)C(=O)c2ncccc2C3=O)CC1 | 16 (≈ 31.3 µM) | > 16 | 16 (≈ 31.3 µM) | 16 (≈ 31.3 µM) | 4 (≈ 7.82 µM) | 8 (≈ 15.6 µM) | 4 (≈ 7.82 µM) | > 16 | – | – | – | – | – | – | –
CCOC(=O)c1c2c(n3cc(Br)ccc13)C(=O)c1nccnc1C2=O | – | – | – | – | – | 0.25 (≈ 0.625 µM) | – | 16 (≈ 40 µM) | – | – | – | – | – | – | –
COP(=O)(CCOC(=O)c1c2c(n3cc(Br)ccc13)C(=O)c1ncccc1C2=O)OC | 1 (≈ 1.97 µM) | 0.5 (≈ 0.986 µM) | 16 (≈ 31.5 µM) | 16 (≈ 31.5 µM) | 1 (≈ 1.97 µM) | 1 (≈ 1.97 µM) | 0.5 (≈ 0.986 µM) | 16 (≈ 31.5 µM) | – | – | – | – | – | – | –
O=C1c2cccnc2C(=O)c2c1c(C(=O)OCCN1CCCC1)c1ccc(Br)cn21 | 0.5 (≈ 1.07 µM) | 0.5 (≈ 1.07 µM) | 4 (≈ 8.54 µM) | 8 (≈ 17.1 µM) | 0.5 (≈ 1.07 µM) | 0.5 (≈ 1.07 µM) | 0.031 (≈ 0.0662 µM) | 0.5 (≈ 1.07 µM) | – | – | – | – | – | – | –
O=C1c2cccnc2C(=O)c2c1c(C(=O)OCCCCN1CCCC1)c1ccc(Br)cn21 | 4 (≈ 8.06 µM) | 1 (≈ 2.01 µM) | 4 (≈ 8.06 µM) | 8 (≈ 16.1 µM) | 1 (≈ 2.01 µM) | 2 (≈ 4.03 µM) | 0.125 (≈ 0.252 µM) | 1 (≈ 2.01 µM) | – | – | – | – | – | – | –
O=C1c2cccnc2C(=O)c2c1c(C(=O)OCCCCCCN1CCCC1)c1ccc(Br)cn21 | 2 (≈ 3.81 µM) | 0.5 (≈ 0.953 µM) | 1 (≈ 1.91 µM) | 4 (≈ 7.63 µM) | 0.5 (≈ 0.953 µM) | 0.5 (≈ 0.953 µM) | ≤ 0.0078 | 1 (≈ 1.91 µM) | – | – | – | – | – | – | –
O=C1c2cccnc2C(=O)c2c1c(C(=O)OCCCO)c1ccc(Br)cn21 | 0.25 (≈ 0.582 µM) | 0.25 (≈ 0.582 µM) | 8 (≈ 18.6 µM) | 8 (≈ 18.6 µM) | 0.25 (≈ 0.582 µM) | 0.125 (≈ 0.291 µM) | 0.125 (≈ 0.291 µM) | 8 (≈ 18.6 µM) | – | – | – | – | – | – | –
CN[C@H](CC(C)C)C(=O)N[C@H]1C(=O)N[C@@H](CC(N)=O)C(=O)N[C@H]2C(=O)N[C@H]3C(=O)N[C@H](C(=O)N[C@H](C(=O)O)c4cc(O)cc(O)c4-c4cc3ccc4O)[C@H](O)c3ccc(c(Cl)c3)Oc3cc2cc(c3O[C@@H]2O[C@H](CO)[C@@H](O)[C@H](O)[C@H]2O[C@H]2C[C@](C)(N)[C@H](O)[C@H](C)O2)Oc2ccc(cc2Cl)[C@H]1O [VANCOMYCIN] | – | – | – | – | – | – | – | – | > 16 | 1 (≈ 0.69 µM) | 2 (≈ 1.38 µM) | 16 (≈ 11 µM) | > 16 | > 16 | > 16
O=C1c2cccnc2C(=O)c2c1c(C(=O)OCCCCCN1CCCC1)c1ccc(Br)cn21 | 0.25 (≈ 0.49 µM) | 0.5 (≈ 0.98 µM) | 1 (≈ 1.96 µM) | 8 (≈ 15.7 µM) | 0.5 (≈ 0.98 µM) | 0.5 (≈ 0.98 µM) | ≤ 0.0078 | 2 (≈ 3.92 µM) | – | – | – | – | – | – | –
O=C1c2cccnc2C(=O)c2c1c(C(=O)OCCO)c1ccc(Br)cn21 | 0.5 (≈ 1.2 µM) | 0.25 (≈ 0.602 µM) | 8 (≈ 19.3 µM) | 8 (≈ 19.3 µM) | 0.125 (≈ 0.301 µM) | 0.125 (≈ 0.301 µM) | 0.125 (≈ 0.301 µM) | 4 (≈ 9.63 µM) | – | – | – | – | – | – | –
CN1CCN(CCCCCOC(=O)c2c3c(n4cc(Br)ccc24)C(=O)c2ncccc2C3=O)CC1 | 0.25 (≈ 0.463 µM) | 0.25 (≈ 0.463 µM) | 2 (≈ 3.71 µM) | 8 (≈ 14.8 µM) | 0.25 (≈ 0.463 µM) | 0.25 (≈ 0.463 µM) | ≤ 0.0078 | 2 (≈ 3.71 µM) | – | – | – | – | – | – | –
CN1CCN(CCOC(=O)c2c3c(n4cc(Br)ccc24)C(=O)c2ncccc2C3=O)CC1 | 8 (≈ 16.1 µM) | 8 (≈ 16.1 µM) | 16 (≈ 32.2 µM) | 8 (≈ 16.1 µM) | 2 (≈ 4.02 µM) | 2 (≈ 4.02 µM) | 1 (≈ 2.01 µM) | 1 (≈ 2.01 µM) | – | – | – | – | – | – | –
O=C1c2cccnc2C(=O)c2c1c(C(=O)OCC(O)CO)c1ccc(Br)cn21 (configuration not stated) | 4 (≈ 8.98 µM) | > 16 | 16 (≈ 35.9 µM) | 16 (≈ 35.9 µM) | 2 (≈ 4.49 µM) | 2 (≈ 4.49 µM) | 1 (≈ 2.25 µM) | 4 (≈ 8.98 µM) | – | – | – | – | – | – | –
CN(C)CCCOC(=O)c1c2c(n3cc(Br)ccc13)C(=O)c1ncccc1C2=O | 2 (≈ 4.38 µM) | 2 (≈ 4.38 µM) | 8 (≈ 17.5 µM) | 16 (≈ 35.1 µM) | 1 (≈ 2.19 µM) | 1 (≈ 2.19 µM) | 0.25 (≈ 0.548 µM) | 1 (≈ 2.19 µM) | – | – | – | – | – | – | –
